Test in all cases: TR-FRET enzymatic activity assay against PI3K isoforms
Holding throughout (assay type): biochemical

The target of one assay is PI3Kγ (Homo sapiens (Human), UniProt P48736). The note with it: 2×Km ATP, 30 minutes at 25° C. The text has this: (§1) The compounds of formula (I) were characterized for their enzymatic activity against the PI3K isoforms. […] TR-FRET monitored the formation of 3,4,5-inositol triphosphate molecule that competed with fluorescently labeled PIP3 for binding to the GRP-1 pleckstrin homology domain protein.
PI3Kγ, sequence (P48736 whole entry, the tested form may be a part, canonical isoform): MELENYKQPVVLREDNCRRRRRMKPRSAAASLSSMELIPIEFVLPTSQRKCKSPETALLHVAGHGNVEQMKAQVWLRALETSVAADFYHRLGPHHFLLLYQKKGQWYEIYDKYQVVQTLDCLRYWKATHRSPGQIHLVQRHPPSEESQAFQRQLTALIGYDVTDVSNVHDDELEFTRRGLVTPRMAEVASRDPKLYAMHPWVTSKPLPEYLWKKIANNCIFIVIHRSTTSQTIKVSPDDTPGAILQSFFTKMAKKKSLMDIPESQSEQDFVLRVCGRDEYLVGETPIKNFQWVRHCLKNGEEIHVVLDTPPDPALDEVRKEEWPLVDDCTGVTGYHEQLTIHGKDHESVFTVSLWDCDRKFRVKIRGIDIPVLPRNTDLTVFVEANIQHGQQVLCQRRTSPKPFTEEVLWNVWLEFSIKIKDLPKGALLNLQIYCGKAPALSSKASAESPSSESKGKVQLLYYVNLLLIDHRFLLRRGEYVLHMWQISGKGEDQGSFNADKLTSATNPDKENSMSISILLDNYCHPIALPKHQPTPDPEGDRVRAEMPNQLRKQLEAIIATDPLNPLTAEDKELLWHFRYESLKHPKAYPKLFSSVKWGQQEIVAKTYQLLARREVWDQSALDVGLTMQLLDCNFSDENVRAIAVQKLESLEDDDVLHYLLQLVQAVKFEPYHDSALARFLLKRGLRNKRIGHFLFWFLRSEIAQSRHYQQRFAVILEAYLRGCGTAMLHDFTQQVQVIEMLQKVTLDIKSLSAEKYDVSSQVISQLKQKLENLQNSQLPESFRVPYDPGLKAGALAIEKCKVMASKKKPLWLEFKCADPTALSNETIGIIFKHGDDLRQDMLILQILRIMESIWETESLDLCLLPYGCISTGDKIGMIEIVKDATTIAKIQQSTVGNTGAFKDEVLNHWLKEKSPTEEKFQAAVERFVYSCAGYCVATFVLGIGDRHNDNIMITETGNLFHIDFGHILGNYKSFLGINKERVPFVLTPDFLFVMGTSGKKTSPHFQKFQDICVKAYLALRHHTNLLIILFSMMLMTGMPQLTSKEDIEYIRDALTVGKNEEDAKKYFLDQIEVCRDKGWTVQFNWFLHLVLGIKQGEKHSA

The next assay concerns the target PI3Kδ (Homo sapiens (Human), UniProt O00329). The note with it: 2×Km ATP, 30 minutes at 25° C.
Text: as §1

A further assay addresses PI3Kβ (Homo sapiens (Human), UniProt P42338). The settings on record: PI3Kβ, TR-FRET, 2×Km ATP, 30 minutes at 25° C.
Text: as §1
(In TR-FRET formats the signal depends on donor and acceptor labels being close together.)

This is an account of results in patent US11021467B2, “Phosphatidylinositol 3-kinase inhibitors” (Gilead Sciences, Inc., priority 2014, dated 2021).

PI3Kδ, sequence (O00329 whole entry): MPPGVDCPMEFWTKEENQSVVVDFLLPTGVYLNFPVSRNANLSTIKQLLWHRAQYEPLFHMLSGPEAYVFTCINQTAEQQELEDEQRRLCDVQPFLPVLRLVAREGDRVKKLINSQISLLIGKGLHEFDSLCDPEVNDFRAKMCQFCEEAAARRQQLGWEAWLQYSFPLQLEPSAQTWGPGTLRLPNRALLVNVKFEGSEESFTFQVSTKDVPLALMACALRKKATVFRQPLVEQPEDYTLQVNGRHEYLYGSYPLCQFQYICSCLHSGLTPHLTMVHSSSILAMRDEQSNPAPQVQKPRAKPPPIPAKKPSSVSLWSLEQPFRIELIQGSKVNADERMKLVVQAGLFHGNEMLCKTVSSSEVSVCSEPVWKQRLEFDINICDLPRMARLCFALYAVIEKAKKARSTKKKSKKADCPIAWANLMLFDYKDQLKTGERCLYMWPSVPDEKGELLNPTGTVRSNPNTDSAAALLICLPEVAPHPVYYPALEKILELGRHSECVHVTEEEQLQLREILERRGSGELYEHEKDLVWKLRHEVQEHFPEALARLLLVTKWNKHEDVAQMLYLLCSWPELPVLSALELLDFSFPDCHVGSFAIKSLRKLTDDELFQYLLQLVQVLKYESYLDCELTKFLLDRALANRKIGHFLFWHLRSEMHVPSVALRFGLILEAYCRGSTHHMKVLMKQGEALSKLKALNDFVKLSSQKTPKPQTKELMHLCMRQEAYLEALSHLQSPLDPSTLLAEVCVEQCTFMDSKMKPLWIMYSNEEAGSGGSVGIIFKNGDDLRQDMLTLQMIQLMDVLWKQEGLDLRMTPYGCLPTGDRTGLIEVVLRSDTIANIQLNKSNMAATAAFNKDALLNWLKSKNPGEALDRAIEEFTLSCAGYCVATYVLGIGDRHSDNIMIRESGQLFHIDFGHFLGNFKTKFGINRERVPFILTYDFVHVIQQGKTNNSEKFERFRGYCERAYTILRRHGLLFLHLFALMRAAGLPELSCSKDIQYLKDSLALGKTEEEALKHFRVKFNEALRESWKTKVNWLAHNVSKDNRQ
PI3Kδ, sequence (P27986 whole entry partner): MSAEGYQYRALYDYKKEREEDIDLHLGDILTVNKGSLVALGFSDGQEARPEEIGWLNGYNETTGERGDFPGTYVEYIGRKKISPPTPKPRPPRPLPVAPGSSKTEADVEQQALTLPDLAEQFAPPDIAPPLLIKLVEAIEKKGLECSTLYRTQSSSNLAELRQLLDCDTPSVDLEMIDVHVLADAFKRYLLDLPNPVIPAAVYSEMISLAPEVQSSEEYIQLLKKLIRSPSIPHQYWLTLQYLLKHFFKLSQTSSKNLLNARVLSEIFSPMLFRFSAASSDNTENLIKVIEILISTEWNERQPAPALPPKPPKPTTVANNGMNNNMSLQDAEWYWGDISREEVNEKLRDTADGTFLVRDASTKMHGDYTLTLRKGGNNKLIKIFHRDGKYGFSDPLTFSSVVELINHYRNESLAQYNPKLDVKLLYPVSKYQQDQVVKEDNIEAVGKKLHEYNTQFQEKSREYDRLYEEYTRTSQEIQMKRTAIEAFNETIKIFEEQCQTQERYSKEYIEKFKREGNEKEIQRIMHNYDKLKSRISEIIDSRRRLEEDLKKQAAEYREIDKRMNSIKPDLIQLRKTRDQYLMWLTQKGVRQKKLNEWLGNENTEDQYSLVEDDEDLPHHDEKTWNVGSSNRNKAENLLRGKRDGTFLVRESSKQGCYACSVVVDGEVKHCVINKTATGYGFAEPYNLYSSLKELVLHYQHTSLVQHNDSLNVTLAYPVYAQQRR
PI3Kβ, sequence (P42338 whole entry): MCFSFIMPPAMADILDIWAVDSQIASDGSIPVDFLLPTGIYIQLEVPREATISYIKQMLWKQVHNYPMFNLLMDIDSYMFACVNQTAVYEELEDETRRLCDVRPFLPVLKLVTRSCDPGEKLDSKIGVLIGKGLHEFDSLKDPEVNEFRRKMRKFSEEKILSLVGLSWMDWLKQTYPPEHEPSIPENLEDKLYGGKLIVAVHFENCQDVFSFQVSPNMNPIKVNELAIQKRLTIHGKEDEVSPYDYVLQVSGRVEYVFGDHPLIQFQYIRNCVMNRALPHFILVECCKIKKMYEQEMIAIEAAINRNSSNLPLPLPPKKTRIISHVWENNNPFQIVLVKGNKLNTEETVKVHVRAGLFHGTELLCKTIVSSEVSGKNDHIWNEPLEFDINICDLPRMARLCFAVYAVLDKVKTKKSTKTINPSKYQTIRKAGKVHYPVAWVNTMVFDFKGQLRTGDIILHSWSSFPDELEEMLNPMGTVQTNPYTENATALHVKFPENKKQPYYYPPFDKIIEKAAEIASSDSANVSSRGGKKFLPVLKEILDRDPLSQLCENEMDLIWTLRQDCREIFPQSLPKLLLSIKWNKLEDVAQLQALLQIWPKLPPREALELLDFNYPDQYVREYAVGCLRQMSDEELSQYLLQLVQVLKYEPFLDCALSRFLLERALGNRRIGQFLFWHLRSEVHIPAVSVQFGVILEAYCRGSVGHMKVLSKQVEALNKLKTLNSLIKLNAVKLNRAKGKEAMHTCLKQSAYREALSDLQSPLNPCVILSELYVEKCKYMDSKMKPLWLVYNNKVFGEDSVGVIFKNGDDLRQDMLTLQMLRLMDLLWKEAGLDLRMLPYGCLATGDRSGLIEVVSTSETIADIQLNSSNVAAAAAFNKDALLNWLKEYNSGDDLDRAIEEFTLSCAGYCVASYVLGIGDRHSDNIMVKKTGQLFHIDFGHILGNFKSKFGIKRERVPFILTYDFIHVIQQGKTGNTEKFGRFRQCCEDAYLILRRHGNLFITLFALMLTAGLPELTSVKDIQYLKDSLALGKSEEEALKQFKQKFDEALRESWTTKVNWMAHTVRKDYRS
PI3Kβ, sequence (P27986 whole entry partner): as the sequence (P27986 whole entry partner) above

By IC50 is commonly meant the concentration that gives 50% inhibition. Low values mean greater potency, high ones weaker potency. `N#CCCCn1c([C@@H](Nc2nc(N)nc(N)c2C#N)C2CC2)nc2cccc(Cl)c2c1=O` [Compound 113, (S)-2,4-diamino-6-(((5-chloro-3-(3-cyanopropyl)-4-oxo-3,4-dihydroquinazolin-2-yl)(cyclopropyl)methyl)amino)pyrimidine-5-carbonitrile]: the IC50 against PI3Kγ is 59 nM; on PI3Kδ it was 1 nM; against PI3Kβ, 17 nM.

Turning to `N#CCCCCn1c([C@@H](Nc2nc(N)nc(N)c2C#N)C2CC2)nc2cccc(Cl)c2c1=O` [Compound 114, (S)-2,4-diamino-6-(((5-chloro-3-(4-cyanobutyl)-4-oxo-3,4-dihydroquinazolin-2-yl)(cyclopropyl)methyl)amino)pyrimidine-5-carbonitrile], the IC50 turned out to be 130 nM on PI3Kγ, 0.8 nM at PI3Kδ and 12 nM on PI3Kβ.

As for `CC[C@H](Nc1nc(N)nc(N)c1C#N)c1nc2cccc(Cl)c2c(=O)n1CCCC#N` [Compound 115, (S)-2,4-diamino-6-((1-(5-chloro-3-(3-cyanopropyl)-4-oxo-3,4-dihydroquinazolin-2-yl)propyl)amino)pyrimidine-5-carbonitrile], the half-inhibitory concentration (IC50) on PI3Kγ was 190 nM; on PI3Kδ, 9 nM; against PI3Kβ it was 190 nM.

`CC[C@H](Nc1nc(N)nc(N)c1C#N)c1nc2cccc(Cl)c2c(=O)n1CCCCC#N` [Compound 116, (S)-2,4-diamino-6-((1-(5-chloro-3-(4-cyanobutyl)-4-oxo-3,4-dihydroquinazolin-2-yl)propyl)amino)pyrimidine-5-carbonitrile]: the half-maximal inhibitory concentration (IC50) against PI3Kγ worked out at 540 nM; on PI3Kδ, 5 nM; on PI3Kβ, 150 nM.

Turning to `CC[C@H](Nc1nc(N)nc(N)c1C#N)c1nc2cccc(Cl)c2c(=O)n1CCCS(C)(=O)=O` [Compound 117, (S)-2,4-diamino-6-((1-(5-chloro-3-(3-(methylsulfonyl)propyl)-4-oxo-3,4-dihydroquinazolin-2-yl)propyl)amino)pyrimidine-5-carbonitrile], the figures for the IC50 at PI3Kγ, on PI3Kδ and against PI3Kβ were 3000 nM, 21 nM and 250 nM, respectively.

Consider `CS(=O)(=O)CCCn1c([C@@H](Nc2nc(N)nc(N)c2C#N)C2CC2)nc2cccc(Cl)c2c1=O` [Compound 118, (S)-2,4-diamino-6-(((5-chloro-3-(3-(methylsulfonyl)propyl)-4-oxo-3,4-dihydroquinazolin-2-yl)(cyclopropyl)methyl)amino)pyrimidine-5-carbonitrile], for which the IC50 against PI3Kγ came out at 570 nM; on PI3Kδ it was 2 nM; against PI3Kβ it was 13 nM.

Turning to `CS(=O)(=O)CCCn1c([C@@H](Nc2nc(N)nc(N)c2C#N)C2CC2)nc2c(Cl)ccc(Cl)c2c1=O` [Compound 119, (S)-2,4-diamino-6-((cyclopropyl(5,8-dichloro-3-(3-(methylsulfonyl)propyl)-4-oxo-3,4-dihydroquinazolin-2-yl)methyl)amino)pyrimidine-5-carbonitrile], the IC50 at PI3Kγ was 1100 nM; on PI3Kδ, 2 nM; against PI3Kβ it was 8 nM.

`CS(=O)(=O)CCCn1c([C@@H](Nc2nc(N)nc(N)c2C#N)C2CC2)nc2c(Cl)cc(F)cc2c1=O` [Compound 120, (S)-2,4-diamino-6-(((8-chloro-6-fluoro-3-(3-(methylsulfonyl)propyl)-4-oxo-3,4-dihydroquinazolin-2-yl)(cyclopropyl)methyl)amino)pyrimidine-5-carbonitrile]: the half-inhibitory concentration (IC50) against PI3Kγ stood at 1900 nM; against PI3Kδ, 8 nM; against PI3Kβ, 30 nM.

Turning to `N#Cc1c(N)nc(N)nc1N[C@H](c1nc2c(Cl)cc(F)cc2c(=O)n1CCCC(N)=O)C1CC1` [Compound 121, (S)-4-(8-chloro-2-(cyclopropyl((2,6-diamino-5-cyanopyrimidin-4-yl)amino)methyl)-6-fluoro-4-oxoquinazolin-3(4H)-yl)butanamide], the IC50 came to 760 nM on PI3Kγ, 2 nM against PI3Kδ and 9 nM against PI3Kβ.

As to `CS(=O)(=O)CCCCn1c([C@@H](Nc2nc(N)nc(N)c2C#N)C2CC2)nc2cccc(Cl)c2c1=O` [Compound 122, (S)-2,4-diamino-6-(((5-chloro-3-(4-(methylsulfonyl)butyl)-4-oxo-3,4-dihydroquinazolin-2-yl)(cyclopropyl)methyl)amino)pyrimidine-5-carbonitrile], the IC50 against PI3Kγ amounted to 120 nM; at PI3Kδ it was 0.7 nM; at PI3Kβ it was 23 nM.

Regarding `C[C@H](Nc1nc(N)nc(N)c1C#N)c1nc2cccc(Cl)c2c(=O)n1C[C@H]1CCNC1` [Compound 125, 2,4-diamino-6-(((S)-1-(5-chloro-4-oxo-3-((S)-pyrrolidin-3-ylmethyl)-3,4-dihydroquinazolin-2-yl)ethyl)amino)pyrimidine-5-carbonitrile], the IC50 is 2300 nM at PI3Kγ, 3 nM against PI3Kδ and 49 nM on PI3Kβ.

Take `C[C@H](Nc1nc(N)nc(N)c1C#N)c1nc2cccc(Cl)c2c(=O)n1C[C@@H]1CCNC1` [Compound 126, 2,4-diamino-6-(((S)-1-(5-chloro-4-oxo-3-((R)-pyrrolidin-3-ylmethyl)-3,4-dihydroquinazolin-2-yl)ethyl)amino)pyrimidine-5-carbonitrile]: the IC50 on PI3Kγ was found to be 2500 nM; on PI3Kδ, 0.9 nM; against PI3Kβ, 24 nM.

With `C[C@H](Nc1nc(N)nc(N)c1C#N)c1nc2cccc(Cl)c2c(=O)n1CCCN1CCOCC1` [Compound 127, (S)-2,4-diamino-6-((1-(5-chloro-3-(3-morpholinopropyl)-4-oxo-3,4-dihydroquinazolin-2-yl)ethyl)amino)pyrimidine-5-carbonitrile], the IC50 against PI3Kγ was determined as 720 nM; at PI3Kδ, 2 nM; at PI3Kβ, 130 nM.

On to `C[C@H](Nc1nc(N)nc(N)c1C#N)c1nc2cccc(Cl)c2c(=O)n1CCC(=O)N(C)C` [Compound 128, (S)-3-(5-chloro-2-(1-((2,6-diamino-5-cyanopyrimidin-4-yl)amino)ethyl)-4-oxoquinazolin-3(4H)-yl)-N,N-dimethylpropanamide], for which the figures for the IC50 against PI3Kγ, on PI3Kδ and on PI3Kβ were 280 nM, 15 nM and 530 nM, respectively.

With `COC(C)(C)CCn1c([C@H](C)Nc2nc(N)nc(N)c2C#N)nc2cccc(Cl)c2c1=O` [Compound 129, (S)-2,4-diamino-6-((1-(5-chloro-3-(3-methoxy-3-methylbutyl)-4-oxo-3,4-dihydroquinazolin-2-yl)ethyl)amino)pyrimidine-5-carbonitrile], the results for the IC50 against PI3Kγ, against PI3Kδ and at PI3Kβ were 530 nM, 2 nM and 290 nM, respectively.

On to `CCOCCn1c([C@H](C)Nc2nc(N)nc(N)c2C#N)nc2cccc(Cl)c2c1=O` [Compound 130, (S)-2,4-diamino-6-((1-(5-chloro-3-(2-ethoxyethyl)-4-oxo-3,4-dihydroquinazolin-2-yl)ethyl)amino)pyrimidine-5-carbonitrile], for which the IC50 on PI3Kγ came out at 410 nM; against PI3Kδ, 3 nM; against PI3Kβ, 120 nM.

As for `COCC(COC)n1c([C@H](C)Nc2nc(N)nc(N)c2C#N)nc2cccc(Cl)c2c1=O` [Compound 131, (S)-2,4-diamino-6-((1-(5-chloro-3-(1,3-dimethoxypropan-2-yl)-4-oxo-3,4-dihydroquinazolin-2-yl)ethyl)amino)pyrimidine-5-carbonitrile], the figures for the IC50 against PI3Kγ, against PI3Kδ and against PI3Kβ were 1400 nM, 13 nM and 210 nM, respectively.
